From US7419657B2, “Treatment of atherosclerotic disorders” (priority 2001, dated 2008)
Where “and” joins values, the source holds several entries; their conditions need not be identical. Identical values can stand only once. Counter-ions that a name gives are not always drawn. Like-named read-outs stand apart in the source and are kept apart here. Marks after values point to notes of the source that are not given here.

Columns and labels:
anti-Chlamydia abzymes [1] = test: Anti-abzyme therapy trial in ischaemic heart disease: serum abzyme activity; assay type: in vivo, human
anti-Chlamydia abzymes [2] = test: Abzyme activity in angina patients reporting aspirin intake (Example 10); assay type: in vivo, human; conditions: for abzyme activity, + aspirin: individuals
anti-Chlamydia abzymes [3] = test: Serum abzyme activity in patients taking aspirin (Example 6); assay type: in vivo, human
anti-Chlamydia abzymes [4] = assay type: biochemical, human; parameters: key to In-vitro Inhibition: + = inhibition; − = no inhibition
anti-Chlamydia abzymes [5] = test: Serum abzyme activity in stable angina patients treated with azithromycin with or without aspirin (Example 8); assay type: in vivo, human; conditions: azithromycin 500 mg once per day
anti-Chlamydia IgG [6] = conditions: best of previously undertaken trials with azithromycin; cited from earlier work
anti-Chlamydia IgG [7] = test: Anti-abzyme therapy trial: anti-Chlamydia IgG; assay type: in vivo, human
[8] = Anti-abzyme therapy trial: modified Rose-Blackburn Questionnaire; assay type: in vivo, human; parameters: Score by modified Rose-Blackburn Questionnaire, 60 days after start of the treatment / Rose Blackthorn Score Day 60: scale not given here
Text: The progression of the clinical condition of the patients was monitored by the use of the modified Bruce Protocol for treadmill exercise/stress ECG testing and on the Rose-Blackburn Questionnaire (Cardiovascular Survey Methods. WHO, Geneva, 1968).

lesion IgG = test: LDL peroxidation by lesion IgG with tested antioxidants; assay type: biochemical, human; conditions: LDL 480 μg of protein; +1% antioxidant; control 0.49 ± 0.023
Chlamydia = assay type: biochemical, Chlamydia pneumoniae or Chlamydia Psittaci
human plasma = test: In vitro kaolin clotting of plasma with atheroma IgG abzymes; conditions: pH 6.2
[9] = patient F, Silent Myocardial Ischaemia
[10] = 10 μM of each Me2+-binding agent
[11] = 10 μM of each Me2+-binding agent, control 24.3
[12] = group mean, before treatment 45.9
[13] = individual stable angina patients
[14] = Therapy Group A individual IHD patients, azithromycin 500 mg daily
[15] = Therapy Group A mean, before treatment 47.5
[16] = individual IHD patients negative for anti-Chlamydia IgG

## CC(=O)Oc1ccccc1C(=O)O [Aspirin, acetylsalicylic acid]
anti-Chlamydia abzymes [1]; Therapy Group D individual IHD patients, aspirin 250 mg daily, before 103, 253
  Anti-Chlamydia abzyme activity, 60 days after the start of treatment: 63 μM MDA/ml and 103 μM MDA/ml
anti-Chlamydia abzymes [1]; Therapy Group D mean, before treatment 178
  Anti-Chlamydia abzyme activity, 60 days after the start of treatment: 83.2 μM MDA/ml
anti-Chlamydia abzymes [2]; stable angina class I
  abzyme activity, + aspirin: 5 and 45 and 0 (3×) and 10
anti-Chlamydia abzymes [2]; stable angina class II
  abzyme activity, + aspirin: 5 (4×) and 10 (2×) and 0 (4×) and 25 and 22.5 and 3.3 and 16.7 and 30
anti-Chlamydia abzymes [2]; stable angina class III
  abzyme activity, + aspirin: 0 (3×) and 45 and 5 and 35 and 15 and 30 and 105 and 20
anti-Chlamydia abzymes [2]; unstable angina (IV)
  abzyme activity, + aspirin: 130 and 70 and 0 and 37 and 90 and 100 and 180
anti-Chlamydia abzymes [2]; stable angina class I, 1/6
  individuals positive for abzymes, + aspirin: 17%
anti-Chlamydia abzymes [2]; stable angina class I, n = 6, without aspirin 30.0
  abzyme activity, + aspirin, group mean: 10.0
anti-Chlamydia abzymes [2]; stable angina class II, 4/15
  individuals positive for abzymes, + aspirin: 27%
anti-Chlamydia abzymes [2]; stable angina class II, n = 15, without aspirin 32.2
  abzyme activity, + aspirin, group mean: 9.2
anti-Chlamydia abzymes [2]; stable angina class III, 6/10
  individuals positive for abzymes, + aspirin: 60%
anti-Chlamydia abzymes [2]; stable angina class III, n = 10, without aspirin 56.0
  abzyme activity, + aspirin, group mean: 25.5
anti-Chlamydia abzymes [2]; unstable angina (IV), 6/7
  individuals positive for abzymes, + aspirin: 86%
anti-Chlamydia abzymes [2]; unstable angina (IV), n = 7, without aspirin 119
  abzyme activity, + aspirin, group mean: 86.7
anti-Chlamydia abzymes [3]; individual patients with CHD, before aspirin 45, 100, 45
  Level of activity of anti-Chlamydia abzymes, 7 days after starting to take 250 mg of aspirin daily: undetectably low level and 20 μM MDA/ml and 0 μM MDA/ml
anti-Chlamydia abzymes [3]; one CHD patient, 250 mg aspirin daily, after a week
  inhibition of the abzyme activity: 5 fold
anti-Chlamydia abzymes [3]; [9]
  Level of activity of anti-Chlamydia abzymes, 7 days after re-starting to take 250 mg aspirin daily: 20 μM MDA/ml
  Level of activity of anti-Chlamydia abzymes, after stopping taking aspirin for 7 days: 65 μM MDA/ml
anti-Chlamydia abzymes [3]; patient F, Silent Myocardial Ischaemia, regular intake
  Level of activity of anti-Chlamydia abzymes, aspirin intake 250 mg daily: 10 μM MDA/ml
anti-Chlamydia abzymes [4]
  In-vitro Inhibition: +
anti-Chlamydia abzymes [4]; [10]
  Result (inhibition of anti-Chlamydia abzymes): Positive
anti-Chlamydia abzymes [4]; [11]
  Lipid oxidising activity of anti-Chlamydia abzymes: 6.2 μM MDA/ml

## CC[C@H]1OC(=O)[C@H](C)[C@@H](O[C@H]2C[C@@](C)(OC)[C@@H](O)[C@H](C)O2)[C@H](C)[C@@H](O[C@@H]2O[C@H](C)C[C@H](N(C)C)[C@H]2O)[C@](C)(O)C[C@@H](C)CN(C)[C@H](C)[C@@H](O)[C@]1(C)O [Azithromycin]
anti-Chlamydia abzymes [5]; [12]
  Anti-Chlamydia abzyme activity, 15 days after the start of the treatment: 19.6 μM MDA/ml
  Anti-Chlamydia abzyme activity, 30 days after the start of the treatment: 17.7 μM MDA/ml
anti-Chlamydia abzymes [5]; [13]
  Anti-Chlamydia abzyme activity, 15 days after the start of the treatment: 60 μM MDA/ml and 0 μM MDA/ml (3×) and 8.3 μM MDA/ml and 6.7 μM MDA/ml (3×) and 33 μM MDA/ml and 75 μM MDA/ml
  Anti-Chlamydia abzyme activity, 30 days after the start of the treatment: 37 μM MDA/ml and 0 μM MDA/ml (3×) and 28 μM MDA/ml and 3.3 μM MDA/ml (2×) and 10 μM MDA/ml and 78 μM MDA/ml
anti-Chlamydia IgG [6]
  treated patients with a reduction of titers of anti-Chlamydia antibodies: 43%
anti-Chlamydia abzymes [1]; [14]
  Anti-Chlamydia abzyme activity, 15 days after the start of treatment: 6.7 μM MDA/ml (3×) and 0 μM MDA/ml (3×) and 60* μM MDA/ml and 8.3 μM MDA/ml and 33 μM MDA/ml and 75* μM MDA/ml and 52* μM MDA/ml
  Anti-Chlamydia abzyme activity, 30 days after the start of treatment: 78** μM MDA/ml and 0 μM MDA/ml (3×) and 37* μM MDA/ml and 28** μM MDA/ml and 3.3 μM MDA/ml (2×) and 10 μM MDA/ml (2×) and 78* μM MDA/ml
  Anti-Chlamydia abzyme activity, 45 days after the start of treatment: 17 μM MDA/ml and 0 μM MDA/ml (5×) and 20* μM MDA/ml and 43* μM MDA/ml and 3.3 μM MDA/ml (2×) and 5.0 μM MDA/ml
  Anti-Chlamydia abzyme activity, 60 days after the start of treatment: 3.3 μM MDA/ml and 6.7 μM MDA/ml (2×) and 0 μM MDA/ml (7×) and 0.5 μM MDA/ml
anti-Chlamydia abzymes [1]; [15]
  Anti-Chlamydia abzyme activity, 15 days after the start of treatment: 22.5 μM MDA/ml
  Anti-Chlamydia abzyme activity, 30 days after the start of treatment: 22.5 μM MDA/ml
  Anti-Chlamydia abzyme activity, 45 days after the start of treatment: 7.4 μM MDA/ml
  Anti-Chlamydia abzyme activity, 60 days after the start of treatment: 1.6 μM MDA/ml
anti-Chlamydia abzymes [1]; Therapy Group A, 3 out of 11
  patients with no changes in the abzyme activity after 15 days: 27%
anti-Chlamydia abzymes [1]; [16]
  Abzyme activity Day 60: 6.7 (2×) and 3.3 and 0
anti-Chlamydia abzymes [1]; summary, group mean, PCG 55.3 ± 6.18, Norm 6.36 ± 1.14
  Anti-Chlamydia abzymes activity, 60 days after treatment: 1.6 ± 0.89 μM/MDA/ml
anti-Chlamydia IgG [7]; summary, group value, before treatment 43.6, 48.5, 52.0 (A, C, B), immuno-fluorescent assay
  Anti-Chlamydia IgG, 60 days after treatment: 0 (titers)^−1
anti-Chlamydia IgG [7]; therapy trial
  presence of anti-Chlamydia IgG after the intensive regimen: totally eliminated
anti-Chlamydia abzymes [4]; in DMSO, 1 μM, control 61
  Lipid oxidising activity of anti-Chlamydia abzymes: 7 μM MDA/ml
anti-Chlamydia abzymes [4]; in DMSO, 5 μM, control 61
  Lipid oxidising activity of anti-Chlamydia abzymes: 0 μM MDA/ml
anti-Chlamydia abzymes [4]; suspension in water, 1 μM, control 61
  Lipid oxidising activity of anti-Chlamydia abzymes: 19 μM MDA/ml
anti-Chlamydia abzymes [4]; suspension in water, 2 μM, control 61
  Lipid oxidising activity of anti-Chlamydia abzymes: 0 μM MDA/ml
anti-Chlamydia abzymes [4]; suspension in water, 10 μM, control 61
  Lipid oxidising activity of anti-Chlamydia abzymes: 0 μM MDA/ml
anti-Chlamydia abzymes [4]; suspension in water, 20 μM, control 61
  Lipid oxidising activity of anti-Chlamydia abzymes: 0 μM MDA/ml
[8]; group mean
  Score by modified Rose-Blackburn Questionnaire, 60 days after start of the treatment: 14.4 ± 1.14
[8]; [16]
  Rose Blackthorn Score Day 60: 18 and 19 and 10 and 13
[8]; individual patients
  Score by modified Rose-Blackburn Questionnaire, 60 days after start of the treatment: 13 and 16 and 18 and 15 (2×) and 8 and 11 and 17 (2×) and 19 and 10
[8]; summary, group mean, PCG 21.5 ± 1.19
  Clinical Status modified Rose G., Blackburn H Questionnaire, 60 days after treatment: 14.4 ± 1.14
human, in vivo
  adverse reactions: No adverse reactions
Patient 5, before treatment 10 tablets daily
  tablets of nitroglycerine daily after 15 days of treatment: 5 tablets of nitroglycerine

## C[S+](C)[O-] [DMSO]
Lesion IgG
  Level of MDA production by 0.82 μg of lesion IgG: 0 µM
Chlamydia
  development of lipid oxidation reaction: completely abrogated

## O=C(O)CN(CCN(CC(=O)O)CC(=O)O)CCN(CC(=O)O)CC(=O)O [DTPA]
anti-Chlamydia abzymes [4]
  In-vitro Inhibition: −
anti-Chlamydia abzymes [4]; [10]
  Result (inhibition of anti-Chlamydia abzymes): Negative
anti-Chlamydia abzymes [4]; [11]
  Lipid oxidising activity of anti-Chlamydia abzymes: 45.2 μM MDA/ml

## O=[N+]([O-])OCC(CO[N+](=O)[O-])O[N+](=O)[O-] [Glyceryl Trinitrate]
anti-Chlamydia abzymes [4]; drug 4.4 μM, control 21.7
  Anti-Abzyme activity: 0 μM MDA/ml
anti-Chlamydia abzymes [4]; drug 22 μM, control 21.7
  Anti-Abzyme activity: 0 μM MDA/ml
anti-Chlamydia abzymes [4]; drug 44 μM, control 21.7
  Anti-Abzyme activity: 0 μM MDA/ml
anti-Chlamydia abzymes [4]; drug 220 μM, control 21.7
  Anti-Abzyme activity: 0 μM MDA/ml

## O=[N+]([O-])O[C@H]1CO[C@H]2[C@@H]1OC[C@H]2O[N+](=O)[O-] [Isosorbide Dinitrate]
anti-Chlamydia abzymes [4]; drug 42 μM, control 21.7
  Anti-Abzyme activity: 0 μM MDA/ml
anti-Chlamydia abzymes [4]; drug 211 μM, control 21.7
  Anti-Abzyme activity: 0 μM MDA/ml

## CCC[C@@H]1C[C@@H](C(=O)N[C@@H]([C@H]2O[C@H](SC)[C@H](O)[C@@H](O)[C@H]2O)[C@@H](C)O)N(C)C1 [Lincomycin Hydrochloride]
anti-Chlamydia abzymes [4]; drug 6.5 μM, control 21.7
  Anti-Abzyme activity: 28.5 μM MDA/ml
anti-Chlamydia abzymes [4]; drug 13 μM, control 21.7
  Anti-Abzyme activity: 30.3 μM MDA/ml

## [N-]=[N+]=[N-].[Na+] [NaN1, sodium azide]
Human plasma
  abzyme effect on the plasma clotting after pre-incubation of the abzymes with inhibitor: reduction
anti-Chlamydia abzymes [4]
  In-vitro Inhibition: +
  Lipid oxidising activity of anti-Chlamydia abzymes: 0 μM MDA/ml
  Result (inhibition of anti-Chlamydia abzymes): Positive

## CC(C)(S)[C@@H](N)C(=O)O [Penicillamine]
anti-Chlamydia abzymes [4]
  In-vitro Inhibition: +
anti-Chlamydia abzymes [4]; [10]
  Result (inhibition of anti-Chlamydia abzymes): Positive
anti-Chlamydia abzymes [4]; [11]
  Lipid oxidising activity of anti-Chlamydia abzymes: 0 μM MDA/ml

## O=C(O)c1ccccn1 [Picolinic acid]
anti-Chlamydia abzymes [4]
  In-vitro Inhibition: +
anti-Chlamydia abzymes [4]; [10]
  Result (inhibition of anti-Chlamydia abzymes): Positive
anti-Chlamydia abzymes [4]; [11]
  Lipid oxidising activity of anti-Chlamydia abzymes: 0 μM MDA/ml

## CC(C)NCC(O)COc1cccc2ccccc12 (stereo not shown) [Propranolol Hydrochloride]
anti-Chlamydia abzymes [4]; Hydrochloride
  Anti-Abzyme activity: 21.3 μM MDA/ml and 18.3 μM MDA/ml
